Experimental data reported in ChEMBL document CHEMBL4742399, “New compounds for use as a therapeutically active substance and in particular for use in the treatment of tumors” (2019).
Activity calls are given as the source filed them. The calls are words filed in the database; no cut-off is given here.

Tests used:
[1] = biological target: T1, Dual specificity tyrosine-phosphorylation-regulated kinase 1B (Homo sapiens, UniProt Q9Y463); assay: Inhibition of GST-tagged DYRK1B (unknown origin) incubated for 30 mins using DYRKtide by ADP-Glo assay
Target sequence in this assay (Q9Y463 whole entry): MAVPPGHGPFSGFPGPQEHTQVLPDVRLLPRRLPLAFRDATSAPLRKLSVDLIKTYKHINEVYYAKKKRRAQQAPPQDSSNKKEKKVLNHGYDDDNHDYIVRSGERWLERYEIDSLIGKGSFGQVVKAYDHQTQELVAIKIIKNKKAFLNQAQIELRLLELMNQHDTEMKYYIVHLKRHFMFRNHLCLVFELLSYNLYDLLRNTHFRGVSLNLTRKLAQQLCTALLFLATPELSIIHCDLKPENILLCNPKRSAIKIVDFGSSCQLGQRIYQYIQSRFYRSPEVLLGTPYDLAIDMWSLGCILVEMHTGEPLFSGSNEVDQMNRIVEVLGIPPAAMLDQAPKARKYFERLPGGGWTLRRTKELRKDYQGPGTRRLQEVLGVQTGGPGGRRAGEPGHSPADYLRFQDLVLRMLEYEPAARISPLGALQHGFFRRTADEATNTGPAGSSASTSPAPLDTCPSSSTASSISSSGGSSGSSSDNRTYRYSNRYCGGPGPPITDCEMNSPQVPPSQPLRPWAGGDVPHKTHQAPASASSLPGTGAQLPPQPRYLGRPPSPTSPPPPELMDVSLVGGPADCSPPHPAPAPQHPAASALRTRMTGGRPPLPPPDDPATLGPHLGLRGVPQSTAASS

HT-29 [2] = assay: Cytotoxicity against human HT-29 multicellular tumor spheroid cells at 0.15 to 20 uM incubated for 48 hrs by Hoechst and SYTOX staining based assay; assay type: functional, cell-based; settings: dose 0.15-20 µM
HT-29 [3] = assay: Cytotoxicity against human HT-29 multicellular tumor spheroid cells at 5 uM incubated for 48 hrs under hypoxic conditions by Hoechst and SYTOX staining based assay; assay type: functional, cell-based
HT-29 [4] = assay: Cytotoxicity against human HT-29 multicellular tumor spheroid cells at 5 uM incubated for 48 hrs by Hoechst and SYTOX staining based assay; assay type: functional, cell-based
[5] = biological target: T1, Dual specificity tyrosine-phosphorylation-regulated kinase 1B; assay: Inhibition of GST-tagged DYRK1B (unknown origin) assessed as reduction p27 Ser10 phosphorylation at 0.1 to 10 uM; settings: dose 0.1-10 µM
Target sequence in this assay (Q9Y463 whole entry, looked up): as the sequence (Q9Y463 whole entry) above

[6] = biological target: T1, Dual specificity tyrosine-phosphorylation-regulated kinase 1B; assay: Inhibition of DYRK1B un human HT-29 cells assessed as reduction p27 Ser10 phosphorylation at 2.5 to 10 uM; assay type: cell-based; settings: dose 2.5-10 µM
Target sequence in this assay (Q9Y463 whole entry, looked up): as the sequence (Q9Y463 whole entry) above

Compound	IC50 [1] [nM]	Activity (HT-29 [2])	Activity (HT-29 [3])	Activity (HT-29 [4])	inhibition [5]	inhibition [6]
Fc1ccccc1-n1cc(-c2ccnc(NC3CCOCC3)n2)cn1	2000	–	–	–	–	–
CCNc1nccc(-c2cnn(-c3ccccc3F)c2)n1	3000	–	–	–	–	–
COc1ccccc1-n1cc(-c2ccnc(NCc3c(C)n[nH]c3C)n2)cn1	3000	–	–	–	–	–
Fc1ccccc1-n1cc(-c2ccnc(NCc3ccncc3)n2)cn1	4000	Active	Active	Active	Active	Active
